Patent US20220105051A1, “COMPOUNDS FOR INCREASING MHC-I EXPRESSION AND MODULATING HISTONE DEACETYLASE ACTIVITY” (Cava Healthcare Inc., priority 2019, published 2022)
“Also recorded” adds a separate entry of the source.

How the values were obtained:
[1] = target: T1, HDAC7 (Homo sapiens, UniProt Q8WUI4); experiment: Individualized HDAC assay, HDAC7; format: biochemical; settings: purified enzyme, 5 to 0.02 μM
T1 construct: purchased BPS Biosciences
T1 sequence (Q8WUI4 1-952): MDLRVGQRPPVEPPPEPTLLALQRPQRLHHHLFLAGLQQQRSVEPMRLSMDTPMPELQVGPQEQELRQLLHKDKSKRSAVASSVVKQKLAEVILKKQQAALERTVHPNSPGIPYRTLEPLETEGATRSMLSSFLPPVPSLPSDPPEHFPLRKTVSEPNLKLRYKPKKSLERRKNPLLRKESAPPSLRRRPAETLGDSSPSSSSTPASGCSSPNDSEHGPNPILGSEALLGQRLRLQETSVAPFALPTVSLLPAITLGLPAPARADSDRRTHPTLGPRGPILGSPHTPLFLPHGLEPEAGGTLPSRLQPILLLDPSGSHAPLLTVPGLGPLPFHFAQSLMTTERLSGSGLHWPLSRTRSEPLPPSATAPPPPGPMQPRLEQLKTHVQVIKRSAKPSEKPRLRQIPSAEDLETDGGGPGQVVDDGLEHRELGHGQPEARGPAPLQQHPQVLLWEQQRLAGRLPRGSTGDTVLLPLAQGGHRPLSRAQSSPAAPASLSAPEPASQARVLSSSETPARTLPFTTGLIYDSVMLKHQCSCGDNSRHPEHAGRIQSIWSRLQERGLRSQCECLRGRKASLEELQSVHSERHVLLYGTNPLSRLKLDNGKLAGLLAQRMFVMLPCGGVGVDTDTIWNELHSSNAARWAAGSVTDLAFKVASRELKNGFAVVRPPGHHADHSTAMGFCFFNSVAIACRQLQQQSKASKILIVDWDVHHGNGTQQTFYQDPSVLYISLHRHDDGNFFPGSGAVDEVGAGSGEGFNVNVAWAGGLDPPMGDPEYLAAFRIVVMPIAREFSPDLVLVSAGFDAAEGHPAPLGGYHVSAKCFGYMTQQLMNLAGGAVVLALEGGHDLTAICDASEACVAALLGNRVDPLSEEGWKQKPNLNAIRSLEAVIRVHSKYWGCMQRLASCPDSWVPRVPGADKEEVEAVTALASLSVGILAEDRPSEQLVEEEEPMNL
Procedure: (§1) The activity of the curcuphenol analogues was assessed with purified HDAC enzymes from all classes I, II, and IV, as well as a select member of HDAC class III (SIRT1). HDACs 1-9 and SIRT1 were evaluated using HDAC Fluorogenic Assay Kits (BPS Biosciences). All assays were completed in black-sided clear-bottom 96 well plates (PerkinElmer), and all treatments were plated in triplicates. Treatment started at 5 μM and was two-fold diluted to a concentration 0.02 μM. The assays were measured using the Synergy HI hybrid reader (BioTek) and Gen5 software (BioTek), excitation was set to 360 nm and detection was measured at 450 nm with a gain of 100. Alternatively HDAC 10 and 11 (BPS Biosciences) were optimized for HDAC concentration using the HDAC-Glo™ I/II Assay and Screening System (Promega). Following optimization each HDAC was run following the Promega protocol in black-sided clear-bottomed 96 well plates in triplicates with same treatments listed above (PerkinElmer). Luminescence was read 30 minutes after HDAC-Glo™I/II reagent was added using the Synergy HI hybrid reader (BioTek) and Gen5 software (Bio-Tek). […] To calculate percent activity, the average of blank wells was subtracted from all treatment groups. The relative mean of activity of the HDAC being measured was determined and all wells that received treatment were divided this average, to give a percentage of activity.
(§2) To evaluate the effect of the compounds on specific HDACs, their activity was assessed with purified HDAC enzymes from all classes I, II, and IV, as well as a select member of HDAC class III (SIRT1). HDACs 1-9 and SIRT1 were evaluated using HDAC Fluorogenic Assay Kits (BPS Biosciences) following the manufacturer's recommendations. Compound treatment started at 5 μM and was two-fold diluted to a concentration 0.02 μM. […] The assays were measured using the Synergy HI hybrid reader (BioTek) and Gen5 software (Bio-Tek). […] To calculate the fold change in HDAC activity, the values from each treated well were divided by the relative mean of activity of the specific HDAC being measured.

[2] = target: T2, HDAC6 (Homo sapiens, UniProt Q9UBN7); experiment: Individualized HDAC assay, HDAC6; format: biochemical; settings: purified enzyme, 5 to 0.02 μM
T2 construct: purchased BPS Biosciences
T2 sequence (Q9UBN7 1-1215): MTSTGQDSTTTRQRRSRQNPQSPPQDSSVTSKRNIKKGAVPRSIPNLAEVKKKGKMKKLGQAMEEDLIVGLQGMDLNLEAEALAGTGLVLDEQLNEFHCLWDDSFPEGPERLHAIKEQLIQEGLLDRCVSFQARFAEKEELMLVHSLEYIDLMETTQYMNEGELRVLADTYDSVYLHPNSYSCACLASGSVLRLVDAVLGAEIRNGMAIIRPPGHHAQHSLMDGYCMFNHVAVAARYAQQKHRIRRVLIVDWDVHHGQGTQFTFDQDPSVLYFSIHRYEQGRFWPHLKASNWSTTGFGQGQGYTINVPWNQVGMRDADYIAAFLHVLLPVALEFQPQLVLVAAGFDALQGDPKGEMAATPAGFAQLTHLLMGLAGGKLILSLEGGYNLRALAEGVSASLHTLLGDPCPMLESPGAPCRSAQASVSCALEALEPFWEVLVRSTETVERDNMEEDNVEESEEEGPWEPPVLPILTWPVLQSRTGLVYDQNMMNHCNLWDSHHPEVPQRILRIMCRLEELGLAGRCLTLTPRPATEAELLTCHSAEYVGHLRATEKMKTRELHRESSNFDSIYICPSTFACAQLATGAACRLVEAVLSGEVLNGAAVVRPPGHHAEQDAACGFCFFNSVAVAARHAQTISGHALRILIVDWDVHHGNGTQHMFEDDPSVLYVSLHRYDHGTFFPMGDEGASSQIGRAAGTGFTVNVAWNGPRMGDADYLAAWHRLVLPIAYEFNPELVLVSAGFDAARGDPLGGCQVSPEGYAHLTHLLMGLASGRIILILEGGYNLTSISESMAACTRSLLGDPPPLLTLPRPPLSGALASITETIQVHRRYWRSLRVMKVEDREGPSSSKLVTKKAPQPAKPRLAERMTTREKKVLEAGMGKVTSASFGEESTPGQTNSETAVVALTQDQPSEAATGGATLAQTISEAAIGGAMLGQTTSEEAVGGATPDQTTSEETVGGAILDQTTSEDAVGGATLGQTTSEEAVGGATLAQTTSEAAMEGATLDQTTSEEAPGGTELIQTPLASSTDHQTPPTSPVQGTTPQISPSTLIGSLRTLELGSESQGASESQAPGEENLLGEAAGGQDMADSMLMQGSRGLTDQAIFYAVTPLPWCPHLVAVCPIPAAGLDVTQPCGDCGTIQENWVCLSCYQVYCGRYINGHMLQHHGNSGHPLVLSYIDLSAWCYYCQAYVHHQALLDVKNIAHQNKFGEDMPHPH
Procedure: as §1, §2

CC(C)=CCCCc1ccc(C)cc1O [P02-113] was tested, and the HDAC7 activity [1] was “no change in activity; also recorded: did not affect the activity; also recorded: unaffected” and the HDAC6 activity [2] was “no change in activity; also recorded: did not affect the activity; also recorded: unaffected”.
COc1ccc(C(C)CCC=C(C)C)c(O)c1 (stereo not drawn) [P03-97-1] was tested, and the HDAC7 activity [1] was “no change in activity; also recorded: unaffected”, the HDAC7 activity ([1]; listed as PO-3-97-1) was “did not affect the activity” and the HDAC6 activity [2] was “no change in activity; also recorded: unaffected”. The HDAC6 activity ([2]; listed as PO-3-97-1) was “did not affect the activity”.
